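Assay format: 96-well plates, 48-hour exposure. At the GI50, growth is halved. TGI: total growth inhibition.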
How the values were obtained:
Assay in all cases: NCI-60 cell line screen, 48 h
U251 CNS = system: U251 CNS
NCI-H226 lung = system: NCI-H226 lung
SN12C renal = system: SN12C renal
UACC-257 melanoma = system: UACC-257 melanoma
KM12 colon = system: KM12 colon
A549 NSCLC = system: A549 NSCLC
MCF7 breast = system: MCF7 breast
SNB-19 CNS = system: SNB-19 CNS
DU-145 prostate = system: DU-145 prostate
SK-MEL-5 melanoma = system: SK-MEL-5 melanoma
OVCAR-8 ovarian = system: OVCAR-8 ovarian
MALME-3M melanoma = system: MALME-3M melanoma
HCC-2998 colon = system: HCC-2998 colon
EKVX NSCLC = system: EKVX NSCLC
COLO 205 colon = system: COLO 205 colon
HL-60(TB) leukemia = system: HL-60(TB) leukemia
UACC-62 melanoma = system: UACC-62 melanoma
MDA-MB-231 breast = system: MDA-MB-231 breast
NCI-H23 lung = system: NCI-H23 lung
RPMI-8226 leukemia = system: RPMI-8226 leukemia
SNB-75 CNS = system: SNB-75 CNS
UO-31 renal = system: UO-31 renal
HOP-62 NSCLC = system: HOP-62 NSCLC
OVCAR-4 ovarian = system: OVCAR-4 ovarian
IGROV1 ovarian = system: IGROV1 ovarian
NCI-H460 lung = system: NCI-H460 lung
RXF 393 renal = system: RXF 393 renal
LOX IMVI melanoma = system: LOX IMVI melanoma
TK-10 renal = system: TK-10 renal
NCI-H522 lung = system: NCI-H522 lung
HCT-116 colon = system: HCT-116 colon
MOLT-4 leukemia = system: MOLT-4 leukemia
HCT-15 colon = system: HCT-15 colon
SR leukemia = system: SR leukemia
NCI/ADR-RES ovarian = system: NCI/ADR-RES ovarian
SK-MEL-2 melanoma = system: SK-MEL-2 melanoma
SK-MEL-28 melanoma = system: SK-MEL-28 melanoma
MDA-MB-435 = system: MDA-MB-435
T-47D breast = system: T-47D breast
HOP-92 NSCLC = system: HOP-92 NSCLC
BT-549 breast = system: BT-549 breast
M14 melanoma = system: M14 melanoma
OVCAR-5 ovarian = system: OVCAR-5 ovarian
SK-OV-3 ovarian = system: SK-OV-3 ovarian
A498 renal = system: A498 renal
CCRF-CEM leukemia = system: CCRF-CEM leukemia
SF-539 CNS = system: SF-539 CNS
SW-620 colon = system: SW-620 colon
SF-295 CNS = system: SF-295 CNS
786-0 renal = system: 786-0 renal
HT29 colon = system: HT29 colon
K-562 leukemia = system: K-562 leukemia
HS 578T breast = system: HS 578T breast
ACHN renal = system: ACHN renal
OVCAR-3 ovarian = system: OVCAR-3 ovarian
PC-3 prostate = system: PC-3 prostate
SF-268 CNS = system: SF-268 CNS
CAKI-1 renal = system: CAKI-1 renal

## Cc1ccc(/C(=C/C=C(/C#N)C(N)=O)Sc2ncnn2C)cc1
U251 CNS
  GI50: 3.47 µM
  TGI: 19.1 µM
NCI-H226 lung
  GI50: 7.5 µM
  TGI: 25.9 µM
SN12C renal
  GI50: 7.89 µM
  TGI: 23.4 µM
UACC-257 melanoma
  GI50: 17.6 µM
  TGI: 33.6 µM
KM12 colon
  GI50: 19.9 µM
  TGI: 44.3 µM
A549 NSCLC
  GI50: 21.6 µM
  TGI: 54.4 µM
MCF7 breast
  GI50: 3.49 µM
  TGI: > 55.3 µM
SNB-19 CNS
  GI50: 22 µM
  TGI: 50.2 µM
DU-145 prostate
  GI50: 6.61 µM
  TGI: 18.2 µM
SK-MEL-5 melanoma
  GI50: 6.6 µM
  TGI: 15.1 µM
OVCAR-8 ovarian
  GI50: 15.8 µM
  TGI: 43.8 µM
MALME-3M melanoma
  GI50: 2.03 µM
  TGI: 14.7 µM
HCC-2998 colon
  GI50: 13 µM
  TGI: 26.4 µM
EKVX NSCLC
  GI50: 1.13 µM
  TGI: 14.6 µM
COLO 205 colon
  GI50: 15.4 µM
  TGI: 35.2 µM
HL-60(TB) leukemia
  GI50: 12.3 µM
  TGI: 83 µM
UACC-62 melanoma
  GI50: 11 µM
  TGI: 24.6 µM
MDA-MB-231 breast
  GI50: 9.57 µM
  TGI: 22.9 µM
NCI-H23 lung
  GI50: 4.16 µM
  TGI: 15.8 µM
RPMI-8226 leukemia
  GI50: 2.4 µM
  TGI: > 22.9 µM
SNB-75 CNS
  GI50: 15.6 µM
  TGI: 30.8 µM
UO-31 renal
  GI50: 5.53 µM
  TGI: > 65.4 µM
HOP-62 NSCLC
  GI50: 13.1 µM
  TGI: 27.7 µM
OVCAR-4 ovarian
  GI50: 24.4 µM
  TGI: > 72.5 µM
IGROV1 ovarian
  GI50: 18 µM
  TGI: > 55.1 µM
NCI-H460 lung
  GI50: 4.66 µM
  TGI: 48.2 µM
RXF 393 renal
  GI50: 6.86 µM
  TGI: 25 µM
LOX IMVI melanoma
  GI50: 0.227 µM
  TGI: 1.4 µM
TK-10 renal
  GI50: 14.2 µM
  TGI: 29.1 µM
NCI-H522 lung
  GI50: 2.6 µM
  TGI: > 52.5 µM
HCT-116 colon
  GI50: 4.57 µM
  TGI: 15.3 µM
MOLT-4 leukemia
  GI50: 10.1 µM
  TGI: > 100 µM
HCT-15 colon
  GI50: 4.96 µM
  TGI: 19.9 µM
SR leukemia
  GI50: 2.51 µM
  TGI: > 35.2 µM
NCI/ADR-RES ovarian
  GI50: 7.25 µM
  TGI: > 69.6 µM
SK-MEL-2 melanoma
  GI50: > 37.6 µM
  TGI: > 55.7 µM
SK-MEL-28 melanoma
  GI50: 14.9 µM
  TGI: 35.7 µM
MDA-MB-435
  GI50: 3.2 µM
  TGI: 24.7 µM
T-47D breast
  GI50: 18.7 µM
  TGI: 40.1 µM
HOP-92 NSCLC
  GI50: 14.1 µM
  TGI: 30.5 µM
BT-549 breast
  GI50: 1.84 µM
  TGI: 9.57 µM
M14 melanoma
  GI50: 6.4 µM
  TGI: 19.9 µM
OVCAR-5 ovarian
  GI50: 8.89 µM
  TGI: 23.5 µM
SK-OV-3 ovarian
  GI50: 23.1 µM
  TGI: > 62.3 µM
A498 renal
  TGI: 3.4 µM
CCRF-CEM leukemia
  GI50: 0.941 µM
  TGI: > 70.8 µM
SF-539 CNS
  GI50: 6.19 µM
  TGI: 20.4 µM
SW-620 colon
  GI50: 3.87 µM
  TGI: 15.6 µM
SF-295 CNS
  GI50: 16.4 µM
  TGI: 41.5 µM
786-0 renal
  GI50: 4.35 µM
  TGI: 10.9 µM
HT29 colon
  GI50: 13.3 µM
  TGI: 48.6 µM
K-562 leukemia
  GI50: 5.48 µM
  TGI: > 100 µM
HS 578T breast
  GI50: 20.1 µM
  TGI: 50.1 µM
ACHN renal
  GI50: 2.94 µM
  TGI: 14.2 µM
OVCAR-3 ovarian
  GI50: 5.95 µM
  TGI: 18.1 µM
PC-3 prostate
  GI50: 11.4 µM
  TGI: 25.5 µM
SF-268 CNS
  GI50: 6.84 µM
  TGI: 25.6 µM
CAKI-1 renal
  GI50: 2.73 µM
  TGI: 19.6 µM

— PubChem BioAssay (NCI)
